Here are results for 1 molecule from US11878955B1, “3,3′,3″-nitrilotris(1-(naphthalen-2-yloxy)propan-2-ol) as an eco-friendly insecticidal agent against Spodoptera littoralis (boisd.)” (priority 2023, dated 2024).

This series deals with Spodoptera littoralis larvae (2nd and 4th instars). The experiment in a line: Insecticidal bioassay screening (castor leaf dip). It is filed as in vivo. The settings on record: for LC50 (ppm): after 72 h of treatment; for Toxic ratio: 72 h, fenoxycarb's LC50 / the compound's LC50 × 100. On the procedure: Five concentrations (200, 100, 50, 25, 12.5 ppm) were designed for this synthetic compound and the reference fenoxycarb compound as the dynamic ingredients based on ppm via diluting the commercial formulation.
In this experiment, castor leaves are immersed in each of the previously prepared concentrations of the components for 10 seconds and then left to dry for 60 minutes. Larvae of the second and fourth instars of each checked strain are prepared with treated leaves in gauze-covered glass containers for 72 hrs. An untreated control is made in which leaves are dipped in triton x-100 and distilled water only. Then the preserved leaves were removed & fresh, untreated leaves were provided for 72 hours. Three replicates (10 larvae each) were checked for each concentration. Daily inspection was carried out for all treatments and mortality percentages were recorded 3 days (72 hours) after treatment. The average mortality percentage was corrected employing Abbott's formula. The corrected mortality rate for each of the previously synthesized compounds is statistically calculated according to Finney (1970). Through this rate, the corresponding concentration test lines (LDP lines) are assessed. Fifty and ninety percent mortality are determined, and the regression values for the checked products were previously evaluated.

Values after ≈ are worked out from the molar mass of the structure shown.

In general, LC50 refers to the concentration that kills 50% of the test population. A lower LC50 goes with a more lethal substance. As to `CCOC(=O)NCCOc1ccc(Oc2ccccc2)cc1` [Fenoxycarb, reference compound], the “LC50 (ppm)” value is, setting by setting: (2nd instar larvae of S. littoralis) 2.73 ppm; (4th instar larvae of S. littoralis) 43.231 ppm. Also, the Toxic ratio was 100 (2nd instar larvae) and 100 (4th instar larvae). The molecule further displayed an LC50 (Spodoptera littoralis, foliar) of 2.73 µg/mL (≈ 9.06 µM).
